Legend:
[1] = tested on: NMU-induced rat mammary carcinomas; assay: NMU-induced mammary tumor model in female rats, 4 weeks treatment; format: in vivo, female Sprague-Dawley rats; conditions: for Median tumor weight: 1 mg/kg p.o. daily for 4 weeks (combination 1 + 1 mg/kg), of 10 animals, control 15200, ovariectomy 0; for Tumor growth inhibition compared to control (procentual change of tumor area): 1 mg/kg p.o. each, 4 weeks, Kruskal-Wallis-test
Description: Tumors were induced by a single intravenous injection of NMU (50 mg/kg) in female Sprague-Dawley rats (Tierzucht Schönwalde, age 50-55 days). Rats with at least one established tumor with a size of minimal 150 mm^2 were treated for 4 weeks by
1) Solvent control, 2) Ovariectomy (at treatment start), 3) The progesterone receptor antagonist 11β-(4-acetylphenyl)-17β-hydroxy-17α(1,1,2,2,2-pentafluoroethyl)-estra-4,9-dien-3-one, 1 mg/kg p.o., 4) Tamoxifen, 1 mg/kg p.o., 5) The progesterone receptor antagonist 11β-(4-acetylphenyl)-17β-hydroxy-17α(1,1,2,2,2-pentafluoroethyl)-estra-4,9-dien-3-one, 1 mg/kg p.o. and Tamoxifen, 1 mg/kg p.o. daily.
As parameter for growth inhibition the procentual change of tumor area determined by weekly caliper measurements was used. For statistical analysis of intergroup differences of mean values the Kruskal-Wallis-test was used.

[2] = tested on: MCF-10 mammary cells with BRCA1 and BRCA2 knock down; assay: Growth of MCF-10 mammary cells with siRNA knock down of BRCA1 and BRCA2, stimulated with progesterone and/or estrogens; format: cell-based; conditions: co-treatment, in the presence of progesterone
Description: MCF-10 mammary cells obtained from ATCC were treated with siRNA knocking down the BRCA1 and BRCA2 gene.
(§1) Cell growth in comparison to untransfected and mock transfected cells was compared. In a second step cells were stimulated either with progesterone and/or with estrogens. […] The effects on progesterone receptor protein expression were further investigated.

progesterone receptor [3] = molecular target: T1, progesterone receptor (Homo sapiens, UniProt P06401); assay: Progesterone receptor protein expression/stability after siRNA knock down of BRCA1; format: cell-based
T1 sequence (P06401 1-933): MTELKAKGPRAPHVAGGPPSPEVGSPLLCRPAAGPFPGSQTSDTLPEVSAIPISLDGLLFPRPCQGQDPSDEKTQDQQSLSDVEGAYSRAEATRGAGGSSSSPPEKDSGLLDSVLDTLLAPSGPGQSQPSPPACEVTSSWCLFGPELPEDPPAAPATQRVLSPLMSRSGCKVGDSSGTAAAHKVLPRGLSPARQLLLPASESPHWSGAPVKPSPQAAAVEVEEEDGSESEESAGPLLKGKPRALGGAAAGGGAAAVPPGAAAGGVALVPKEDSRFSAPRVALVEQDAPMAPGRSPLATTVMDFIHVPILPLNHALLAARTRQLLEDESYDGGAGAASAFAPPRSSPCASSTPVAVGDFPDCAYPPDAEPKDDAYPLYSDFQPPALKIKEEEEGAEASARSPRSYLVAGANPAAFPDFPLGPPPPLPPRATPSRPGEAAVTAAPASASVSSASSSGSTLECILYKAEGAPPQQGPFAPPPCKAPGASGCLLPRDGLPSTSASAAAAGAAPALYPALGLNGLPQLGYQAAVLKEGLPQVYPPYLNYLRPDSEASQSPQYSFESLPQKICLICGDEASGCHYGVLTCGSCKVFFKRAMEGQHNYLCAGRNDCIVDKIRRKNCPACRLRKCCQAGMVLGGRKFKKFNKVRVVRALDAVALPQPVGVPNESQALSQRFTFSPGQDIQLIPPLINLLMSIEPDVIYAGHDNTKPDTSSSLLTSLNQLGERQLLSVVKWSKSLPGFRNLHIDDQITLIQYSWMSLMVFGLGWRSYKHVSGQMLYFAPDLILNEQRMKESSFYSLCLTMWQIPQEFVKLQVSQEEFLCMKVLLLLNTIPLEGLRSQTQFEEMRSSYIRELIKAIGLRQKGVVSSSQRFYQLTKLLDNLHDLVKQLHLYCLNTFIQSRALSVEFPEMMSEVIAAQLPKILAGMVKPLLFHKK
Text: as §1

progesterone receptor [4] = molecular target: T1, progesterone receptor; conditions: Fuhrmann et al., J. Med. Chem. 2000; cited from earlier work
[5] = tested on: Brca1/p53-deficient mice mammary tumors; conditions: BRCA1- or BRCA2 inactivated in mammary glands; Poole et al., Science 2006; cited from earlier work

Row | Increased stability of progesterone receptor after BRCA1 knock down (progesterone receptor [3]) | Structure (SMILES) | Median tumor weight [1] | Tumor growth inhibition compared to control (procentual change of tumor area) [1] | Growth/proliferation of BRCA1 knock down cells [2] | Antiprogestagenic activity (progesterone receptor [4]) | Development of mammary tumors in mice [5]
1 | – | CC/C(=C(\c1ccccc1)c1ccc(OCCN(C)C)cc1)c1ccccc1 [Tamoxifen, reference compound] | 2950 mg | not significant different to the untreated control group | – | – | –
2 | could be antagonized | CC(=O)c1ccc([C@H]2C[C@@]3(C)[C@@H](CC[C@@]3(O)C(F)(F)C(F)(F)F)[C@@H]3CCC4=CC(=O)CCC4=C32)cc1 [11β-(4-acetylphenyl)-17β-hydroxy-17α-(1,1,2,2,2-pentafluoroethyl)-estra-4,9-dien-3-one] | 1800 mg | not significant different to the untreated control group | able to antagonize the effects of BRCA1 knock down | high antiprogestagenic activity | –
3 | – | CC#C[C@]1(O)CC[C@H]2[C@@H]3CCC4=CC(=O)CCC4=C3[C@@H](c3ccc(N(C)C)cc3)C[C@@]21C [mifepristone] | – | – | – | – | blocks the development of mammary tumors
